This is an account of results in patent US12582644B2, “O-GlcNAc transferase inhibitors and uses thereof” (President and Fellows of Harvard College, priority 2018, dated 2026).

Data set [1] has as its system global O-GlcNAcylation in HEK293T cells. The experiment in a line: Western blotting for global O-GlcNAc levels in HEK293T cells. As to conditions: for protein O-GlcNAcylation: from 2 hours (FIG. 13E); for global O-GlcNAc levels, dose dependence: 4 hours (FIG. 13C); for O-GlcNAc levels after prolonged treatment: 96 hours (FIG. 13E). It counts as cell-based. A general note: In western blotting, separated proteins are transferred to a membrane and probed.

Data set [2] has as its system global O-GlcNAcylation in HCT116 cells. The data set is described as follows: Western blotting for global O-GlcNAc levels in HCT116 cells. It counts as cell-based. As to conditions: for O-GlcNAc levels, dose dependence: HCT116, 20-80 μM, 4 hours or 24 hours.
For data set [3], the system named is HCF-1 cleavage in HEK293T cells. The experiment in a line: HCF-1 cleavage in HEK293T cells (Western blotting). Format: cell-based. As to conditions: for uncleaved HCF-1: over 96 hours. The source says: (§1) In addition to glycosylating Ser/Thr residues of proteins, OGT catalyzes cleavage of the cell-cycle regulator HCF-1 by glycosylating a glutamate in the HCF-1 cleavage sequence.^4c,7 An OGT inhibitor would be expected to block cleavage. Indeed, a decrease in HCF-1 cleavage products and the appearance of uncleaved HCF-1 in cells treated with 1b, 2b or 4b was observed (FIGS. 2E, 16). Because OGT knockdown is known to decrease cell proliferation,^8 the effects of 1b, 2b, and 4b on cell growth in culture over 96 hours were also monitored. Although there was no evidence of apoptosis, reduced growth of cells was observed over time (FIG. 17), consistent with the knockdown results.

In data set [4] the test system is HCF-1 cleavage in HCT116 cells. The experiment in a line: HCF-1 cleavage in HCT116 cells (Western blotting). It counts as cell-based. As to conditions: HCT116, 20-80 μM, 24 hours.
Source text: as §1

Data set [5] concerns HCT116 cells. The data set is described as follows: Cell viability and live-cell imaging (IncuCyte confluence, CellTiter-Glo). Format: cell-based. As to conditions: for cellular confluency relative to DMSO control: HCT116, 40 μM, 96 hours; for cell growth: HCT116, 96 hours, 10 or 40 μM. How it is done: (§2) HCT116 cells were plated into 384-well plate one day prior to treatment with compounds (300 cells per well). Compounds were dispensed using a D300e Digital Dispenser (Tecan). Cells were imaged every 3 hours using an IncuCyte ZOOM instrument (Sartorius) to generate growth curves. After four days of treatment, cell viability was assessed using the CellTiter-Glo® Luminescent Cell Viability Assay (Promega). Luminescence signal was recorded using the GloMax® Explorer System (Promega). For Cytotoxicity, HEK293T cells were plated into a 96-well plate two days prior to treatment with compounds at 80% confluency. The number of dead cells were assessed by CellTox™ Green Cytotoxicity Assay (Promega).
Background: ATP-based viability assays read luminescence as a measure of living cells.

Data set [6] concerns HEK293T cells. The experiment in a line: CellTox Green Cytotoxicity Assay. As to conditions: 24 hours, 0-50 μM. It counts as cell-based. How it is done:
as §2

In data set [7] the test system is OGT's detained intron (intron 4) in HEK293T cells. The data set is described as follows: Quantitative PCR of OGT detained intron splicing. Format: cell-based. The following applies: 10 μM, 2-hour treatment. How it is done: Total RNA was harvested directly from tissue culture plates using Trizol (Life Technologies) according to the manufacturer's directions. In all experiments, total RNA was treated with Turbo DNase (Life Technologies) to remove any residual DNA contamination, extracted in acid-buffered phenol/chloroform, and ethanol-precipitated. Reverse transcription was performed using 2 μg of DNase-treated total RNA in a 20 μL reaction following the manufacturer's protocol (SuperScript III, Life Technologies) for 1 h at 50° C. cDNA reactions were […] diluted 1:10, and 1 μL was used in each PCR reaction. Real-time qRT-PCR was performed using PowerUp SYBR Green (Life Technologies) on a StepOne-Plus Real-Time PCR System (Applied Biosystems).

In data set [8] the test system is global O-GlcNAcylation in PC3 cells. The experiment in a line: Western blotting for O-GlcNAc levels in PC3 cells. As to conditions: PC3 prostate cancer cells.
Method: (§3) Cells were plated and grown in their respective media until they reached a confluency of 60-80%. […] For all other cell lines, compounds were dissolved in 0.2 mL of fresh media and then added directly to the cells.
(§4) Cell lysates for from HEK293T, LNCaP, HCT116 and PC3 cells were prepared for western blotting in the following manner, and all the steps were conducted at 4° C. […] Samples were transferred to a nitrocellulose membrane (Bio-Rad). Membranes were blocked with 5% bovine serum albumin in TBST and probed with primary antibodies overnight at 4° C. and for 1 h at RT with peroxidase conjugated secondary antibodies, as indicated in each figure. Blots were developed using enhanced chemiluminescence (Pierce) and visualized with an Amersham Imager 600.
The subject of data set [9] is global O-GlcNAcylation in LNCaP cells. The data set is described as follows: Western blotting for O-GlcNAc levels in LNCaP cells. The following applies: LNCaP prostate cancer cells.
Method: as §3, §4
The target in data set [10] is T1, ncOGT (Homo sapiens, UniProt O15294).
T1 construct: Full length human OGT (ncOGT); made in house
T1 sequence (O15294 1-1046): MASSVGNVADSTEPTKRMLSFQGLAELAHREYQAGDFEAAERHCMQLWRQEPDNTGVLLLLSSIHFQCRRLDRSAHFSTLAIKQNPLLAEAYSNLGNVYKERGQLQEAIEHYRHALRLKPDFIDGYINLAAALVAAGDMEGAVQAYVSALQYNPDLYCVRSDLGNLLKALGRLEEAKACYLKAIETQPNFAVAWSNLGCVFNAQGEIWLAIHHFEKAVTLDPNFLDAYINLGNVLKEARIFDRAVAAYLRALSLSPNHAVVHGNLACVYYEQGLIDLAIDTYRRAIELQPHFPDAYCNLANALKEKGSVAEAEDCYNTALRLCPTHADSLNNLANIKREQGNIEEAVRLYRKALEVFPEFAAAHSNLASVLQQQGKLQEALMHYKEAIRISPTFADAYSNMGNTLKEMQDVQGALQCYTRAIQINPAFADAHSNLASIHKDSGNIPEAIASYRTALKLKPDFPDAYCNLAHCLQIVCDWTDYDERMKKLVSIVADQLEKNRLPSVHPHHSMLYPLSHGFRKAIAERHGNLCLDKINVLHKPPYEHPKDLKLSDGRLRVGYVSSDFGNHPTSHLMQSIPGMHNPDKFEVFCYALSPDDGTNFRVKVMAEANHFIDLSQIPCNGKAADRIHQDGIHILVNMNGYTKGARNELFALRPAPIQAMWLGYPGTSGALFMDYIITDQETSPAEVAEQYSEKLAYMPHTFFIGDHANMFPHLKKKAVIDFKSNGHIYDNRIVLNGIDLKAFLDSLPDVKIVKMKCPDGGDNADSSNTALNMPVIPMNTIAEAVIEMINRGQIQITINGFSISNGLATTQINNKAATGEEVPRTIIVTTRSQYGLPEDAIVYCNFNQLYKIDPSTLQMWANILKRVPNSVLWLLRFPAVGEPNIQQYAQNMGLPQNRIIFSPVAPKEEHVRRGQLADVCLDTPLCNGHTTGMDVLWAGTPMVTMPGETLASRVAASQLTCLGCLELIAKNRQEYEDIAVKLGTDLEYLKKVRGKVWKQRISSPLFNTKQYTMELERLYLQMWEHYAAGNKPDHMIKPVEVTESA
The data set is described as follows: UDP-Glo Glycosyltransferase Assay (IC50/Ki). It counts as biochemical.
Method: Materials for this assay were obtained from Promega (catalog #V6961). […] Assays were performed in white, 384-well or H volume 96-well plates. Quantities in parenthesis apply to reactions run in H volume 96-well plates. Reaction volumes were 12 (24) μL. […] The quenched reactions were then mixed briefly by shaking at 600 rpm in a Thermomixer C, spun down at 400×g for 1 minute, and incubated for one hour at room temperature prior to reading luminescence, as per the manufacturer's guidelines. Data were analyzed by Microsoft Excel and Prism 7 (Graphpad). […] Each sample was run in duplicate, unless otherwise specified.

Data set [11] is described as follows: Kinetic solubility. Format: physicochemical. As to conditions: kinetic from dmso stock.
The nature of data set [12]: PAMPA assay. It counts as in vitro ADME. As to conditions: read-out: Permeability. For orientation: In PAMPA a lipid-coated filter parts donor from acceptor wells.
Data set [13] is described as follows: Rat liver microsome stability assay. Format: in vitro ADME. The following applies: rat liver microsomes; read-out: RLM Stability (t1/2).
The subject of data set [14] is HEK293T cells. The experiment in a line: Quantitative proteomics / protein abundance in HEK293T cells. The following applies: 20 μM.
Method: At the indicated time point, cells were lysed in lysis buffer (2% SDS 50 mM Tris-HCl and 150 mM NaCl), sonicated (BioDisruptor) and protein concentration determined with the BCA assay. Samples were reduced with 5 mM DTT for 45 mins at 60° C., then alkylated with 14 mM iodoacetamide for 45 mins at room temperature in the dark. Then 100 μg of protein was precipitated using chloroform/methanol.^32 Protein pellets were resuspended in 200 mM HEPES pH 8.5 to 1 mg/mL. Proteins were digested with LysC (Wako) (substrate:enzyme=100) overnight at 37° C. and then with sequencing grade Trypsin (Promega) (substrate:enzyme=100) for 6 hours at 37° C. The resulting peptide solutions were then labelled with TMT 10/11-plex reagents (Thermo Scientific) for 1.5 hours at room temperature. Reactions were stopped by addition of 5% hydroxylamine for 30 minutes. Equal amounts of peptide samples were combined, dried by vacuum centrifugation and desalted on a Waters C18 solid phase extraction Sep-Pak. TMT-labeled peptide samples were fractionated via basic-pH reverse-phase (BPRP) HPLC to 96 fractions and then consolidated to 12 fractions. These fractions were subsequently acidified with 1% formic acid, vacuum centrifuged to near dryness and desalted with C18 stagetips.^32 Dried peptides were resuspended in 5% acetonitrile/5% formic acid for LC-MS/MS processing. […]
Precursors for MS2/MS3 analysis were selected using a Top10 method. […] Following acquisition of each MS2 spectrum, an MS3 spectrum was collected using the recently described method in which multiple MS2 fragment ions were captured in the MS3 precursor population using isolation waveforms with multiple frequency notches.^33b MS3 precursors were fragmented by high energy collision-induced dissociation (HCD) and analyzed using the Orbitrap (NCE 65; AGC 1.5×10^5; maximum injection time 150 ms, resolution was 50,000 at 400 Th, isolation window 0.7 Da).
Mass spectra were processed using a SEQUEST-based pipeline^23 Spectra were converted to mzXML using a modified version of ReAdW.exe. […]
Data set [15] has as its target T2, OGT (Homo sapiens, UniProt O15294).
T2 sequence (O15294 1-1046): T1 sequence (O15294 1-1046)
The following applies: SPR, value in parentheses; read-out: Binding affinity (Kd ± s.d.) determined by SPR; cited from earlier work.

For data set [16], the target named is T3, full length OGT (Homo sapiens, UniProt O15294).
T3 sequence (O15294 1-1046): T1 sequence (O15294 1-1046)
The experiment in a line: Dissociation constants by microscale thermophoresis (MST). As to conditions: read-out: Binding affinity (Kd ± s.d.), binding of compounds to OGT.
Method: Excess NHS-ester was removed with a Zeba™ Spin desalting column (ThermoFisher). A range of concentrations of the ligand were prepared in which the concentration of labeled OGT was kept constant at 5 nM, and all experiments were performed in MST running buffer (PBS, pH 7.4, 0.05% Tween-20, 1 mM DTT, 2% glycerol, 0.5% DMSO). Mixtures were incubated for at least 10 minutes to facilitate binding before MST experiments. MST experiments were carried out using 60% LED power and 20% MST power in standard capillaries (from NanoTemper Technologies). […] Kd values were calculated using a user-defined mass action equation in the GraphPad Prism 6 software (GraphPad Software, Inc.).

For orientation: IC50 means the point on the concentration scale where inhibition reaches its midpoint. Broadly, the Ki is the equilibrium dissociation constant of an inhibitor or competing ligand from its target. By solubility is commonly meant how much of the substance goes into solution per volume. Low readings indicate a poorly soluble substance, high ones a readily soluble substance. One may read the Kd as the concentration at which binding is half-saturated.

Converted amounts (≈) assume the structure as drawn.

As for `CCOC(=O)CCCOc1ccccc1[C@@H](NS(=O)(=O)c1ccc2[nH]c(=O)ccc2c1)C(=O)N(CC(=O)OCC)Cc1cccs1` [2b, Ethyl (R)-4-(2-(2-((2-ethoxy-2-oxoethyl)(thiophen-2-ylmethyl)amino)-2-oxo-1-((2-oxo-1,2-dihydroquinoline)-6-sulfonamido)ethyl)phenoxy)butanoate], the “ability to inhibit global O-GlcNAcylation, ranking” value in [1] (HCT116, HEK293T, PC3, and LNCaP cells) is reported as “best activity”. Besides, in [1] (HEK293T, 20 μM), the “protein O-GlcNAcylation” value is listed as “decreased protein O-GlcNAcylation in as little as 2 hours”. Also, in data set [1] (HEK293T), the “global O-GlcNAc levels, dose dependence” value was “dose dependent decreases in global O-GlcNAc levels” and the “O-GlcNAc levels after prolonged treatment” value is on record as “remain very low”. The “O-GlcNAc levels, dose dependence” value in data set [2] was “dose dependent decreases in O-GlcNAc levels”. In addition, the “global O-GlcNAc levels, comparison with 1b” value in [2] (HCT116, 24-hour treatment, 20 μM (FIG. 15B)) is “more effective than 1b”. The HCF-1 cleavage entry in data set [3] (20 μM, 48 hours) is reported as “blocked HCF-1 cleavage”. In addition, in data set [3], the “uncleaved HCF-1” value is on record as “time dependent increase in uncleaved HCF-1”. The “HCF-1 cleavage, 2b compared with 1b” value in [4] is “more effective at reducing HCF-1 cleavage”. Moreover, in data set [5], the “cellular confluency relative to DMSO control” value is “confluency is reduced” and the cell growth entry was “reduced cell growth compared with the control”. For the same compound, in [6], the cytotoxic cell death entry was “did not result in cytotoxic cell death”. In data set [7], the “detained intron splicing of OGT transcript” value is “increased detained intron splicing”. The O-GlcNAc levels entry in data set [8] was “Decreases in O-GlcNAc levels”. Also, the O-GlcNAc levels entry in data set [9] was “Decreases in O-GlcNAc levels”.

Turning to `CCOC(=O)CN(Cc1cccs1)C(=O)[C@H](NS(=O)(=O)c1cc2ccc(=O)[nH]c2cc1C)c1ccccc1OC`, half-maximal inhibition in [10] (UDP-Glo assay, 300 nM ncOGT, 40 μM UDP-GlcNAc) (IC50) was put at 1.8 µM. In addition, in data set [10] (calculated from IC50 (UDP-Glo) by Cheng-Prusoff), the Ki is 0.103 µM. Besides, the concentration in solution in [11] (solubility) was 0.0211 mg/mL (≈ 36.1 µM). Moreover, the Papp in data set [12] came to 5110 nm/s. In addition, the half-life in data set [13] was 1.3 min.

For `COC(=O)CN(Cc1cccs1)C(=O)[C@H](NS(=O)(=O)c1ccc2[nH]c(=O)ccc2c1)c1ccccc1OC` [1b, Methyl (R)—N-(2-(2-methoxyphenyl)-2-((2-oxo-1,2-dihydroquinoline)-6-sulfonamido)acetyl)-N-(thiophen-2-ylmethyl)glycinate], the O-GlcNAc levels result in data set [1] (HEK293T, 20 μM, 24 hours (FIG. 13B)) was “O-GlcNAc levels recover after 24 hours”. In data set [1] (HEK293T, 20 μM), the “protein O-GlcNAcylation” value is listed as “decreased protein O-GlcNAcylation in as little as 2 hours”. In addition, in data set [1] (HEK293T), the “global O-GlcNAc levels, dose dependence” value was “dose dependent decreases in global O-GlcNAc levels” and the “O-GlcNAc levels after prolonged treatment” value was “recover”. In addition, the “ability to inhibit global O-GlcNAcylation” value in [1] (short treatment times (<8 hr)) was “decent inhibitor”. Further, the “O-GlcNAc levels, dose dependence” value in data set [2] is on record as “dose dependent decreases in O-GlcNAc levels”. Also, in [3], the “uncleaved HCF-1” value is given as “time dependent increase in uncleaved HCF-1”. In [5], the “cellular confluency relative to DMSO control” value was “confluency is reduced” and the cell growth entry is recorded as “reduced cell growth compared with the control”. In addition, the cytotoxic cell death entry in data set [6] was “did not result in cytotoxic cell death”. In [7], the “detained intron splicing of OGT transcript” value was “increased detained intron splicing”. Besides, in data set [8], the O-GlcNAc levels entry is reported as “Decreases in O-GlcNAc levels”. In addition, the O-GlcNAc levels entry in data set [9] is given as “Decreases in O-GlcNAc levels”. Further, the “OGT level (Western blotting)” value in data set [14] (4 and 24 hours) was “an increase in OGT”. Besides, the “changes in abundance of other proteins (off-target activity)” value in [14] (24 hr) is reported as “Few significant changes”. For the same compound, the “abundance of OGT and OGA (proteomics)” value in data set [14] (time course 8, 16, 24 hours) was “reciprocal changes in the abundance of OGT and OGA”.

Regarding `CCOC(=O)CN(Cc1cccs1)C(=O)[C@H](NS(=O)(=O)c1cc2ccc(=O)[nH]c2cc1Cl)c1ccccc1OC` [drawing 86], in data set [11], the solubility came to 0.019 mg/mL (≈ 31.5 µM). In addition, in [12], the Papp came out at 5400 nm/s. Moreover, the half-life in [13] turned out to be 1.9 min.

As for `CC(=O)N[C@H]1[C@@H](OP(=O)(O)OP(=O)(O)OC[C@H]2O[C@@H](n3ccc(=O)[nH]c3=O)[C@H](O)[C@@H]2O)O[C@H](CO)[C@@H](O)[C@@H]1O` [UDP-GlcNAc, reference compound], the Kd in [15] is 16.1 µM; in data set [16], 16 ± 4 µM.
